In US10746738B2, “Claudin-1 peptide reagents and methods” (THE REGENTS OF THE UNIVERSITY OF MICHIGAN, priority 2015, dated 2020):
“Also recorded” adds a separate entry of the source.

System: proximal human colon specimens
Experiment: Immunofluorescence of proximal human colon with claudin-1 peptide and antibody
Protocol: Formalin-fixed, paraffin-embedded (FFPE) specimens from human proximal colon were obtained from the archived tissue bank in the Department of Pathology at the University of Michigan. 5 μm thick sections were cut, mounted onto glass slides (Superfrost Plus, Fischer Scientific). The tissues were deparaffinized using a standard protocol. The sections were incubated with 3 rounds of xylene (3 min each) and 2 rounds of 100% and 95% ethanol (2 min each), and hydrated with water for 5 min. Antigen retrieval was performed with 10 mM citric acid buffer containing 0.05% Tween 20; pH 6.0. The specimens were placed in a citric acid buffer, maintained at a sub-boiling temperature for 15 min, and then allowed to cool to RT for 30 min. […] Confocal fluorescence images were collected with using a 63× oil immersion objective (Leica TCS SP5 Microsystems). […]
The mean fluorescence intensities from 3 boxes with dimensions of 20×20 μm2 placed completely within the surface epithelium of each image was measured for RTS*-Cy5.5 using custom Matlab software (MathWorks Inc). […]
Co-localization of peptide and antibody binding can be appreciated on these merged images, and the extent is characterized by the Pearson's correlation coefficient ρ. We measured the fluorescence intensities from binding of the RTS*-Cy5.5 peptide in a set of 3 boxes with dimensions of 20×20 μm^2 located at random on cells in the epithelium.

## RTS*-Cy5.5: RTSPSSR labeled at the C-terminus with Cy5.5 via a GGGSK linker
Normal colonic mucosa and hyperplastic polyps
  binding on confocal microscopy: minimal fluorescence intensity; also recorded: minimal binding
Sessile serrated adenomas (SSA) and adenomas
  binding on confocal microscopy: strong binding; also recorded: found to bind; also recorded: Strong staining
